# Tested on: LTB4 biosynthesis in human whole blood
# Assay: calcium ionophore-induced LTB4 biosynthesis in human whole blood
# Format: cell-based
# Details: at 13 nM; human heparinized whole blood, calcium ionophore A23187 challenge, LTB4 by radioimmunoassay; read-out: Inhibition of leukotriene biosynthesis
# Procedure: Inhibition of leukotriene biosynthesis was evaluated in an assay, involving calcium ionophore-induced LTB4 biosynthesis expressed human whole blood. Human heparinized whole blood was preincubated with test compounds or vehicle for 15 min at 37° C. followed by calcium ionophore A23 187 challenge (final concentration of 8.3/μM) and the reaction terminated after 30 min by adding two volumes of methanol containing prostaglandin B2 as an internal recovery standard. The methanol extract was analyzed for LTB4 using a commercially available radioimmunoassay.
smiles,measurement,value
"CON=C(c1cccc(COc2ccc3c(-c4ccc(F)cc4)c4c(cc3c2)C(=O)OC4)c1)[C@H]1COC(C)(C)O1 [Example 1, O-methylE- and Z-(4""S)-7-[(3'-((2"",2""-dimethyl-1"",3""-dioxolan-4""-yl)oximinomethyl)phenyl)oxymethylene]-4-(4-fluorophenyl)naptho[2,3-c]furan-1(3H)-one]",inhibition at 0.013 µM,52%
